One substance from article PMC11596557, “Exiguolysin, a Novel Thermolysin (M4) Peptidase from Exiguobacterium oxidotolerans” (Microorganisms, 2024) can be followed below.

This assay relates to exiguolysin. The experiment in a line: Km determination of the fluorogenic substrate (Michaelis-Menten). Conditions: 25 mM Tris, 2.5 mM CaCl2, pH 7.0; substrate 0-200 µM; exiguolysin 5 units/well. It counts as biochemical, Exiguobacterium oxidotolerans. The procedure:
The inhibition of protease activity was screened using a 20 × 20 library of N-alpha dipeptide mercaptoamide inhibitors as previously described by Cathcart et al., and the half-maximal inhibitory constant (Ki) values were determined. In order to determine Michaelis–Menten constant, Km, of the fluorogenic substrate, exiguolysin (previously purified by HIC, final concentration 5 units/well) was added to wells of a 96-well black microtitre plate (Nunc); the volume was adjusted to 75 µL in assay buffer (25 mM Tris, 2.5 mM CaCl2, pH 7.0), and fluorogenic substrate (25 µL) was added at concentrations of 0, 1, 10, 25, 50, 100 and 200 µM. Time-dependent hydrolysis of the fluorogenic substrate was measured (excitation/emission […] nm) every 30 s for 30 min. The Km is determined using the Michealis–Menten equation, by plotting the rate of substrate hydrolysis against substrate concentration.

*: point of attachment. Mca = COc1ccc2c(CC(=O)*)cc(=O)oc2c1

In the case of “Mca-Lys-Pro-Leu-Gly-Leu-Dap-(Dnp)-Ala-Arg-NH2 (Mca-KPLGL-{Dap(Dnp)-Ala-Arg-NH2}) [fluorogenic substrate, fluorogenic matrix metalloprotease (MMP) substrate]”, the Michaelis-Menten constant (Km) (in general, the substrate concentration at which the rate is half of its maximum) stood at 14.2 µM.
